# In PubChem BioAssay (NCI):
#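 How tested: cells in 96-well plates exposed to compound for 48 hours at five concentrations. GI50 = concentration required for 50% inhibition of growth. TGI: concentration producing complete growth inhibition.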
# Columns and labels:
# Experiment in all cases: NCI-60 cell line screen, 48 h
# SF-268 CNS = tested on: SF-268 CNS
# CAKI-1 renal = tested on: CAKI-1 renal
# IGROV1 ovarian = tested on: IGROV1 ovarian
# HT29 colon = tested on: HT29 colon
# OVCAR-8 ovarian = tested on: OVCAR-8 ovarian
# MDA-MB-435 = tested on: MDA-MB-435
# DU-145 prostate = tested on: DU-145 prostate
# SK-MEL-5 melanoma = tested on: SK-MEL-5 melanoma
# OVCAR-4 ovarian = tested on: OVCAR-4 ovarian
# NCI-H226 lung = tested on: NCI-H226 lung
Compound,TGI (SF-268 CNS) [µM],TGI (CAKI-1 renal) [µM],TGI (IGROV1 ovarian) [µM],TGI (HT29 colon) [µM],TGI (OVCAR-8 ovarian) [µM],TGI (MDA-MB-435) [µM],TGI (DU-145 prostate) [µM],TGI (SK-MEL-5 melanoma) [µM],TGI (OVCAR-4 ovarian) [µM],TGI (NCI-H226 lung) [µM],GI50 (IGROV1 ovarian) [µM]
CC(=N\N=C\c1ccccn1)/C(C)=N/N=C(C)/C(C)=N/N=C(C)/C(C)=N/N=C/c1ccccn1,> 100,> 100,> 100,> 100,> 100,> 100,> 100,> 100,> 100,> 100,
CS(=O)(=O)O.[Ag],39.7,34.2,13.7,39.3,> 100,9.78,34.2,18.3,9.43,51.4,
O=C(O)C1SCCS1,> 100,,> 100,> 100,> 100,> 100,> 100,> 100,> 100,> 100,
COC(=O)n1c(CBr)c(Br)c2ccccc21,75.8,49.9,93.1,> 100,> 100,,,> 100,66.2,33.6,
CC1(C)[C@@H]2C[C@H]1C(Cc1cccc(C[C@H]3c4cc(-c5ccccn5)ncc4[C@H]4C[C@@H]3C4(C)C)c1)c1cc(-c3ccccn3)ncc12 (some centres not stated),> 100,> 100,> 100,> 100,> 44.2,> 58.5,> 100,> 35.8,> 100,,0.662
O=C(O)/C=C/C(=O)O,> 100,> 100,> 100,> 100,> 100,> 100,> 100,> 100,> 100,> 100,
O=C(OCc1ccccc1)N1c2cc([N+](=O)[O-])ccc2C(=O)N2CCC[C@H]2C1O (some centres not stated),> 100,> 100,> 100,> 100,> 100,> 100,> 100,> 100,> 100,> 100,
CC(C)C(C/C=C1\CC(CO)(COC(=O)CC(C(C)C)C(C)C)OC1=O)C(C)C (configuration not stated),27.6,20.3,28.1,32.6,33,19.7,22,23,33,24.4,
CC[C@@H]1CC[C@@H]2[C@H](CC[C@]3(C)[C@@H](OS(=O)(=O)c4ccc(C)cc4)CC[C@@H]23)[C@H]1CO,> 100,> 100,> 100,> 100,> 100,> 100,> 100,> 100,> 100,> 100,
O=C1C(N=Nc2ccc(-c3nc4ccccc4[nH]3)cc2)NC(=S)N1c1ccccc1 (configuration not stated),> 100,> 100,> 100,> 100,> 100,> 100,> 100,> 100,> 100,> 100,
